Results: paper PMC5819996 (Cell chemical biology, 2017)

How the values were obtained:
[1] = biological target: MBP-UbiB^CΔ47 (Escherichia coli, UniProt P0A6A0); assay: malachite green ATPase assay; format: biochemical; conditions: 100 μM ATP, 4 mM MgCl2, 1 mM Triton X-100 and 2-alkylphenols, pH 7.5, 30 °C
[2] = biological target: COQ8A^NΔ250 (Homo sapiens, UniProt Q8NI60); assay: malachite green ATPase assay; format: biochemical; conditions: 100 μM ATP, 4 mM MgCl2, 1 mM Triton X-100 and 2-alkylphenols, pH 7.5, 30 °C
Sequence of COQ8A^NΔ250 (Q8NI60 251-647, stated change not applied): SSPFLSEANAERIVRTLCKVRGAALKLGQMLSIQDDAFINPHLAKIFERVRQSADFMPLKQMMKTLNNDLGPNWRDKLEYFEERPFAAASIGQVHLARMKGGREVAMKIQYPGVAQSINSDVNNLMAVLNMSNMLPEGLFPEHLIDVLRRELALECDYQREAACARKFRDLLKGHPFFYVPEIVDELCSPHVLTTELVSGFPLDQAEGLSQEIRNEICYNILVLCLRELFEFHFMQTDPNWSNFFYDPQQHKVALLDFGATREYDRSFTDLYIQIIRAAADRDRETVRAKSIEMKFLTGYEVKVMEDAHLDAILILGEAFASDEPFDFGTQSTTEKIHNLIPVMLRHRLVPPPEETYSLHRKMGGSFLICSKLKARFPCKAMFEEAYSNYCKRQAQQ

Sequence of MBP-UbiB^CΔ47 (P0A6A0 1-499, stated change not applied): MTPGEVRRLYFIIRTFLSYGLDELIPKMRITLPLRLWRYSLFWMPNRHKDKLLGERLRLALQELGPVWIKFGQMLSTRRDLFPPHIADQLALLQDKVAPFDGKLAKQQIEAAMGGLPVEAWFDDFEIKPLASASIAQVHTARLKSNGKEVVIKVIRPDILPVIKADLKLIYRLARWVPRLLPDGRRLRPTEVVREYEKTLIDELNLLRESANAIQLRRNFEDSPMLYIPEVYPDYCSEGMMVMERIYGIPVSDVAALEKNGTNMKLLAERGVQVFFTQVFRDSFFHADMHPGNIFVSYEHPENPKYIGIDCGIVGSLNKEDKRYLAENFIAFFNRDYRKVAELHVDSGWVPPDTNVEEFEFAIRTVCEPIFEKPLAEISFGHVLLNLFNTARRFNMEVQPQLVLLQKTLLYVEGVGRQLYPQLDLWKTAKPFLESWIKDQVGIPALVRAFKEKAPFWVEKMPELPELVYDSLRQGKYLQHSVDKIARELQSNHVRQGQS

For `Nc1ncnc2c1ncn2[C@@H]1O[C@H](COP(=O)(O)OP(=O)(O)OP(=O)(O)O)[C@@H](O)[C@H]1O` [ATP], the “malachite green ATPase assay” value [1] was 2-alkylphenols with Triton X-100 increase the ATPase activity of UbiB family members and the “malachite green ATPase assay” value [2] was 2-alkylphenols with Triton X-100 increase the ATPase activity of UbiB family members.
